Results on 1 compound are retold here after the kinase profiling compilation of Christmann-Franck et al. (2016).

The test system of assay [1] is ABL1 (human), P00519 [F317I]. Put plainly: KINOMEscan competition binding. Conditions: compound 10.0 µM.
A further assay addresses ALK (human) (UniProt Q9UM73). As to the kind of experiment: KINOMEscan competition binding. Conditions: compound 10.0 µM.
For the next assay, the target named is DCLK1 (human) (UniProt O15075). Put plainly: KINOMEscan competition binding.
DCLK1 (human), sequence (O15075 whole entry, looked up): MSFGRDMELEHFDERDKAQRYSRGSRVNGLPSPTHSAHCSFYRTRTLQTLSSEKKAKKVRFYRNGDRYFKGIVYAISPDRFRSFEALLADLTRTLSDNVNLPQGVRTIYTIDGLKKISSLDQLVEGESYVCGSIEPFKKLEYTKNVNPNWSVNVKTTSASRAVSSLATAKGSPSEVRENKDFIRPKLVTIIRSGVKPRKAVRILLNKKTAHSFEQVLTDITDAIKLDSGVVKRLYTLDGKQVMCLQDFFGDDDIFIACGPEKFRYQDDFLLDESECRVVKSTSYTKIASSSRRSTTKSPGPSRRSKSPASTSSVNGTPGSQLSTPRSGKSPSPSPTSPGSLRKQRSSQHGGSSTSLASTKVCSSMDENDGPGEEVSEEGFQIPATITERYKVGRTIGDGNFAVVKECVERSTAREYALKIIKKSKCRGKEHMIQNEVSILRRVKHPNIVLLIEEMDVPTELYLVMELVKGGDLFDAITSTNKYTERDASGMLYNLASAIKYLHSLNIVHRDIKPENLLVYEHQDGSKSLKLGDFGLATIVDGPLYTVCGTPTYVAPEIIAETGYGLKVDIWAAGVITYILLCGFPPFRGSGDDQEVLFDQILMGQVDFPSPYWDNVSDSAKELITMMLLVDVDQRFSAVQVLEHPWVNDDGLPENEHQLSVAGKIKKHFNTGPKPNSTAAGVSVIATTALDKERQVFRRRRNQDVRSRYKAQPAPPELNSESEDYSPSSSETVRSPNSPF
Another assay deals with DCLK2 (human) (UniProt Q8N568). As to the kind of experiment: KINOMEscan competition binding. Conditions: compound 10.0 µM.
A further assay concerns the target GAK (human) (UniProt O14976). Put plainly: KINOMEscan competition binding. Conditions: compound 10.0 µM.
For another assay, the target named is MAPK7 (human) (UniProt Q13164). Put plainly: KINOMEscan competition binding. Conditions: compound 10.0 µM.
For another assay, the target named is PLK4 (human) (UniProt O00444). As to the kind of experiment: KINOMEscan competition binding. Particulars: compound 10.0 µM.
For a further assay, the target named is ROS1 (human) (UniProt P08922). As to the kind of experiment: KINOMEscan competition binding. Conditions: compound 10.0 µM.
Another assay concerns the target RPS6KA1 KD2 (human) (UniProt Q15418). Put plainly: KINOMEscan competition binding. Particulars: compound 10.0 µM.
The target of another assay is RPS6KA6 KD2 (human) (UniProt Q9UK32). As to the kind of experiment: KINOMEscan competition binding. Particulars: compound 10.0 µM.
The target in the next assay is TNK1 (human) (UniProt Q13470). Put plainly: KINOMEscan competition binding. Conditions: compound 10.0 µM.
A further assay concerns the target TNK2 (human) (UniProt Q07912). As to the kind of experiment: KINOMEscan competition binding. Conditions: compound 10.0 µM.
Another assay deals with TTK (human) (UniProt P33981). As to the kind of experiment: KINOMEscan competition binding. Conditions: compound 10.0 µM.
The target in assay [2] is LRRK2 (human), Q5S007 [G2019S]. Put plainly: SelectScreen, TR FRET. For orientation: Time-resolved FRET reads energy transfer from a long-lived donor to a nearby acceptor.
A further assay concerns the target MAP3K2 (human) (UniProt Q9Y2U5). Put plainly: SelectScreen, TR FRET.
The target in a further assay is MAP3K3 (human) (UniProt Q99759). Put plainly: SelectScreen, TR FRET.
MAP3K3 (human), sequence (Q99759 whole entry, looked up): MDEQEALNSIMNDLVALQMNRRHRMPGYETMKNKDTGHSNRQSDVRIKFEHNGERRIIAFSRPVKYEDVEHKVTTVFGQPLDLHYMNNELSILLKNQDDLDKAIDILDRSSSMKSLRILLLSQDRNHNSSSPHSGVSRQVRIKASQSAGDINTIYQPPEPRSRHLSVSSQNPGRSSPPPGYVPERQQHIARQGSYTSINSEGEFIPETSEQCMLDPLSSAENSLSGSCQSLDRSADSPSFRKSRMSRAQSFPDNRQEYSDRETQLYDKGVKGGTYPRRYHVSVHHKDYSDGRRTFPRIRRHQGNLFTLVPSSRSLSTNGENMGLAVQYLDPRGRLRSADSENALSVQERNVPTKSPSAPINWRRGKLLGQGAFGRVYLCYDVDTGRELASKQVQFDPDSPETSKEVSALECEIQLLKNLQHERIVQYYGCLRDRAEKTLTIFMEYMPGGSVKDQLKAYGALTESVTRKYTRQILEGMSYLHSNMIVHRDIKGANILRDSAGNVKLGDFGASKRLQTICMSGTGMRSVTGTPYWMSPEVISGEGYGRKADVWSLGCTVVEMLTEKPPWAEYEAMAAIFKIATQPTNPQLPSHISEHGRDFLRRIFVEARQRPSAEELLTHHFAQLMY
A further assay concerns the target TAOK2 (human) (UniProt Q9UL54). Put plainly: SelectScreen, TR FRET.

RPS6KA1 KD2 (human), sequence (Q15418 whole entry, looked up): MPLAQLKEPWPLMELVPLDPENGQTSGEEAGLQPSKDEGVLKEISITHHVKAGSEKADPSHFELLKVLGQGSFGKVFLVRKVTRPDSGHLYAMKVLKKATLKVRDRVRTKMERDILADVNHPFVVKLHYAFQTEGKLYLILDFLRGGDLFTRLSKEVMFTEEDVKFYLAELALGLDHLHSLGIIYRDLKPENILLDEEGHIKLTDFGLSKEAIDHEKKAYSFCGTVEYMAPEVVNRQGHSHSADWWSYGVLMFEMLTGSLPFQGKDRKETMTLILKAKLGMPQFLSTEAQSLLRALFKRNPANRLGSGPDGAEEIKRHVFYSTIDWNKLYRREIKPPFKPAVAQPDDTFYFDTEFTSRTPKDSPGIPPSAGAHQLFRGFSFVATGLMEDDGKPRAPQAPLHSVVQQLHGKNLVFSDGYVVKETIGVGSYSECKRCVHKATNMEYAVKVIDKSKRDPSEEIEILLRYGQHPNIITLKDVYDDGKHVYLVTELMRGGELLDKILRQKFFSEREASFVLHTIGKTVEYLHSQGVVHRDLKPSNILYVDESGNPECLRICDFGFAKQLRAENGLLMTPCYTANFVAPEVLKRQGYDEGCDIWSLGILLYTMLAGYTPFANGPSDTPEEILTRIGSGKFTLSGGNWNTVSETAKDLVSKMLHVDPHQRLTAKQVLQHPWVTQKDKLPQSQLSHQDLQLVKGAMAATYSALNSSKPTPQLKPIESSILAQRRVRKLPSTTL
ALK (human), sequence (Q9UM73 whole entry, looked up): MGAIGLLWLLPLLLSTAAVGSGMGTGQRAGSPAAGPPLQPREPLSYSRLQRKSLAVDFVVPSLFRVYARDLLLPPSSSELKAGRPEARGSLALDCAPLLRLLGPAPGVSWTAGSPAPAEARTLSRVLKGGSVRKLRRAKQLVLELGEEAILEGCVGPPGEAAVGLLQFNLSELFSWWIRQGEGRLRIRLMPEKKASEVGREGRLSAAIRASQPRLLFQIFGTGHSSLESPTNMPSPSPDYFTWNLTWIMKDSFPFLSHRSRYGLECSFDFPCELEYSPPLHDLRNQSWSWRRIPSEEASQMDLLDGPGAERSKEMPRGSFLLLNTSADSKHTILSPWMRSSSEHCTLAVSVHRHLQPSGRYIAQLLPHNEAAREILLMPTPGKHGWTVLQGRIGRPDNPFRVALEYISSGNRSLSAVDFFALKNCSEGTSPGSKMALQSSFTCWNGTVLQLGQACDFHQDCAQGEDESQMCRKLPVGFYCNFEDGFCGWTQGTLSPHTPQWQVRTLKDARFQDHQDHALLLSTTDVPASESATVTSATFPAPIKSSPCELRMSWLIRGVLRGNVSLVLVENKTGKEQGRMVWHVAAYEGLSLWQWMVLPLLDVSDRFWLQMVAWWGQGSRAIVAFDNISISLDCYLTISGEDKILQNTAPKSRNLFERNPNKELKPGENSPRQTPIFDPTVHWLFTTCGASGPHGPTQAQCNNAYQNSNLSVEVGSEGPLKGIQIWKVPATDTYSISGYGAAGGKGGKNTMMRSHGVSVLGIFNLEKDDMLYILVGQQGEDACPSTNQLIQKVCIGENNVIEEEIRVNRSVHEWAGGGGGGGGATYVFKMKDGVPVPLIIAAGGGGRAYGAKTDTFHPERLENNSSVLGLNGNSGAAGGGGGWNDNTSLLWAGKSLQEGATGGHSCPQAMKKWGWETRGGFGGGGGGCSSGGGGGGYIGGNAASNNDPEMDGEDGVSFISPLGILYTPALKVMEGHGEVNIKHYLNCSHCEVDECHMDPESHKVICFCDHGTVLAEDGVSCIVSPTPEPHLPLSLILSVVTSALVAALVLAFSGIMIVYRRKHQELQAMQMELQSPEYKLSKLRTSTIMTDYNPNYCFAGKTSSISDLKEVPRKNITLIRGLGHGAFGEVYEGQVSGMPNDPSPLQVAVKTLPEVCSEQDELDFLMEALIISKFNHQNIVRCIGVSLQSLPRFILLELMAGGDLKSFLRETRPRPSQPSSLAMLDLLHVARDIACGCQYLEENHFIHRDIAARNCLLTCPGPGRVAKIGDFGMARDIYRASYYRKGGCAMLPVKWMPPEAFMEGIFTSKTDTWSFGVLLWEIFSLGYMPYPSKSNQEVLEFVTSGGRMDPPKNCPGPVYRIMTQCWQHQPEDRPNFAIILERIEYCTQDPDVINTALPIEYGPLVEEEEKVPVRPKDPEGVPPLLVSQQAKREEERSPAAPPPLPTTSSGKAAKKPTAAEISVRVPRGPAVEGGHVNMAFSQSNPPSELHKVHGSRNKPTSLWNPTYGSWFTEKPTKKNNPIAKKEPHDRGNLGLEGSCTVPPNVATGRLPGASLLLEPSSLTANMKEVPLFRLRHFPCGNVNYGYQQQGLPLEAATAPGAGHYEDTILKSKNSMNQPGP
GAK (human), sequence (O14976 whole entry, looked up): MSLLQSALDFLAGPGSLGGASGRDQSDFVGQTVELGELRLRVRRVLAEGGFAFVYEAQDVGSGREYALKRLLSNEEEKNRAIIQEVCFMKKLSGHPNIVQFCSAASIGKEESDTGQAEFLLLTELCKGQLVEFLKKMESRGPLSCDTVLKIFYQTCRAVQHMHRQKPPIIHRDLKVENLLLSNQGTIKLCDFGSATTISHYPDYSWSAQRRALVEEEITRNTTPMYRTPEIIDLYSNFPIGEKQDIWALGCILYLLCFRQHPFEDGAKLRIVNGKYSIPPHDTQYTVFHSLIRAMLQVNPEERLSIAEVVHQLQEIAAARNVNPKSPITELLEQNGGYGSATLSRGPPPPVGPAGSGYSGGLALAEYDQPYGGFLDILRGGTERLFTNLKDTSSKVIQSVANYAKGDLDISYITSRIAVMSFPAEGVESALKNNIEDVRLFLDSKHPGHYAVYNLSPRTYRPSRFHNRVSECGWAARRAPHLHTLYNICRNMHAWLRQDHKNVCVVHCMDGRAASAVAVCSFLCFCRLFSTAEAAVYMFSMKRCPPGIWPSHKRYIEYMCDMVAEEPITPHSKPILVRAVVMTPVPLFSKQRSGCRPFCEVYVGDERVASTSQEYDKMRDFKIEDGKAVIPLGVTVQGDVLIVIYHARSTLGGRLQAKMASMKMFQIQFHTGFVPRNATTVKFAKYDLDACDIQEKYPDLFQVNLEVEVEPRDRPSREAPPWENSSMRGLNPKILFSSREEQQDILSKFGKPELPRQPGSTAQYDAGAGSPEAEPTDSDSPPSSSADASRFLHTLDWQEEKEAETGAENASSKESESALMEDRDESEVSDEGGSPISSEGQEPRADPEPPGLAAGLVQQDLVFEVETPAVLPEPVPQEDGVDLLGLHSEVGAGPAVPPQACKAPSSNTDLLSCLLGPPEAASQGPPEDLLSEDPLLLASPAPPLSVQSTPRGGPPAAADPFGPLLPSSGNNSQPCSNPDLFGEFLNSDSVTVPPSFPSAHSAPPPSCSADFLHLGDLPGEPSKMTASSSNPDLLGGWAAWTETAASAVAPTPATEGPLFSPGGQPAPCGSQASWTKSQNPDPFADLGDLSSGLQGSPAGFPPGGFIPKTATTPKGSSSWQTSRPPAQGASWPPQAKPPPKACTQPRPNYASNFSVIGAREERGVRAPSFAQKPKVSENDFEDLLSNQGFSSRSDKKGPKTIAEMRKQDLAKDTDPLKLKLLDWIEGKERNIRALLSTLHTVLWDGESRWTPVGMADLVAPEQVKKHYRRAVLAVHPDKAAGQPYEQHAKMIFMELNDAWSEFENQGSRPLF

Consider `CCOc1cc(N2CCC(O)CC2)ccc1Nc1ncc2c(n1)N(C)c1ccccc1C(=O)N2C`, for which the kinase still bound, per cent of control is 30% in [1]; 29% at ALK (human); 0.9% on DCLK1 (human) (compound 10.0 µM); 0.65% on DCLK2 (human); 31% at GAK (human); 0% on MAPK7 (human). In addition, the kinase still bound, per cent of control at PLK4 (human) came out at 2.8%; at ROS1 (human), 15%; at RPS6KA1 KD2 (human), 28%; at RPS6KA6 KD2 (human), 31%; at TNK1 (human), 7.8%; on TNK2 (human), 17%. At TTK (human), this compound registered a kinase still bound, per cent of control of 19%. The compound further returned a Kd at DCLK1 (human) of 97 nM. Also, the IC50 in [2] was found to be 2.6 nM; at MAP3K2 (human), 155 nM; against MAP3K3 (human), 120 nM; against TAOK2 (human) it was 54.3 nM.

A word on the Kd: it is the free concentration of one partner at which half of the binding sites on the other are occupied at equilibrium, for simple one-to-one binding. The term IC50 denotes the midpoint of a concentration-inhibition curve. A low value points to greater potency in that assay.
